{
  "source": "patent US20120114583A1",
  "about": "“USE OF DIHYDROQUERCETIN AND AT LEAST ONE AMINO ACID TO POSITIVELY INFLUENCE THE NATURAL PIGMENTATION PROCESS” (Henkel AG & Co. KGaA, priority 2009, published 2012)",
  "type_in_all_cases": "cell-based",
  "key": {"[1]": {"system": "ckit", "test": "Differential gene expression of ckit by quantitative RT-PCR in organotypical hair follicle cell cultures", "conditions": "for ckit expression, Mean: 48 h, dermal papilla cell 3D cultures, untreated control = 1", "source_text": "(§1) The ligands involved in melanogenesis, such as SCF or alpha-MSH (melanocyte stimulating hormone alpha) bind to different receptors, through which the corresponding signal is transmitted into the cell interior. The receptor for SCF is ckit, the receptor for alpha-MSH is MCR-1 (melanocortin receptor 1). Substances that bring about a change in the expression of MCR-1 and/or ckit can influence melanogenesis. If an induction (up-regulation or stimulation) of the gene expression of the corresponding receptors occurs, melanogenesis is assumed to be stimulated. Differential gene expression was determined by means of quantitative RT-PCR. After preparing three-dimensional organotypical hair follicle cell cultures from dermal papilla cells on microcarriers, they were incubated for 48 h with dihydroquercetin in two different concentrations. In order to perform PCR the RNA was first isolated from the organotypical cell cultures with the aid of an RNeasy Mini Kit from Qiagen and transcribed into cDNA by reverse transcription. In the subsequent PCR reaction, which is performed for each gene with the aid of gene-specific primers and which serves to amplify the required gene sections, the formation of PCR products is detected online via a fluorescence signal. The fluorescence signal is proportional to the amount of PCR product formed. The stronger the expression of a particular gene, the greater the amount of PCR product formed and the higher the fluorescence signal. To quantify the gene expression the untreated control is set to 1 and the expression of the gene to be determined is referenced thereto (x-times expression). […] Values greater than or equal to the 1.5 times expression or less than or equal to the 0.7 times expression of the untreated control are classed as being expressed in a tangentially differential manner."}, "[2]": {"system": "MCR1 (melanocortin receptor 1)", "test": "Differential gene expression of MCR1 by quantitative RT-PCR in organotypical hair follicle cell cultures", "conditions": "for MCR1 expression, Mean: 48 h, dermal papilla cell 3D cultures, untreated control = 1", "source_text": "as §1"}, "[3]": {"system": "gp100", "test": "Differential gene expression of gp100 by quantitative RT-PCR in organotypical hair follicle cell cultures", "conditions": "for gp100 expression, Mean: 48 h, dermal papilla cell 3D cultures, untreated control = 1", "experimental": "Gp 100 is a protein that occurs in the membrane of melanosomes and stabilizes them. Since more melanin is produced in the cells following application of substances that positively influence melanogenesis, an increase in the melanosomes necessary for transport also occurs. A substance that induces the gene expression of gp100 is therefore a pigmentation-stimulating active ingredient. Differential gene expression was determined by means of quantitative RT-PCR. After preparing three-dimensional organotypical hair follicle cell cultures from dermal papilla cells on microcarriers, they were incubated for 48 h with dihydroquercetin in two different concentrations. In order to perform PCR the RNA was first isolated from the organotypical cell cultures with the aid of an RNeasy Mini Kit from Qiagen and transcribed into cDNA by reverse transcription. In the subsequent PCR reaction, which is performed for each gene with the aid of gene-specific primers and which serves to amplify the required gene sections, the formation of PCR products is detected online via a fluorescence signal. The fluorescence signal is proportional to the amount of PCR product formed. The stronger the expression of a particular gene, the greater the amount of PCR product formed and the higher the fluorescence signal. To quantify the gene expression the untreated control is set to 1 and the expression of the gene to be determined is referenced thereto (x-times expression). […] Values greater than or equal to the 1.5 times expression or less than or equal to the 0.7 times expression of the untreated control are classed as being expressed in a tangentially differential manner."}, "[4]": {"system": "hair follicle equivalents", "test": "Melanin content in hair follicle equivalents", "conditions": "for Melanin content d4 Mean: day 4; for Melanin content d7 Mean: day 7, untreated control 181", "experimental": "In order to assess the melanin content, three-dimensional organotypical hair follicle cell cultures prepared from dermal papilla cells, hair follicle melanocytes and outer root sheath keratinocytes were treated with dihydroquercetin (10 μM and 100 μM) for 7 days. Untreated cell cultures served as a control. After 4 and 7 days respectively, the hair follicle equivalents were homogenized and the melanin extracted with NaOH (1M)+10% DMSO at 100° C. for 45 min. Aliquots of the specimens were then transferred to a 96-well plate and the extinction was measured at 492 nm. The rise in the melanin content from day 0 to day 7 was evaluated. All values were referenced to the untreated control on day 7 (=100%)."}},
  "data": [
    {"smiles": "O=C1c2c(O)cc(O)cc2OC(c2ccc(O)c(O)c2)C1O", "note": "(stereo not drawn) [Dihydroquercetin, 3,3′,4′,5,7-pentahydroxyflavanone]", "values": [
      {"measurement": "ckit expression, Mean", "setting": "[1]; 10 μM", "result": 1.32, "unit": "x-times expression"},
      {"measurement": "ckit expression (in words)", "setting": "[1]; 100 μM", "result": "induced"},
      {"measurement": "ckit expression, Mean", "setting": "[1]; 100 μM", "result": 3.55, "unit": "x-times expression"},
      {"measurement": "MCR1 expression, Mean", "setting": "[2]; 10 μM", "result": 2.56, "unit": "x-times expression"},
      {"measurement": "MCR1 expression (in words)", "setting": "[2]; 10 μM, significantly differential = >= 1.8 times or <= 0.5 times untreated control", "result": "expressed in a significantly differential manner"},
      {"measurement": "MCR1 expression (in words)", "setting": "[2]; 100 μM", "result": "induced"},
      {"measurement": "MCR1 expression, Mean", "setting": "[2]; 100 μM", "result": 5.17, "unit": "x-times expression"},
      {"measurement": "gp100 expression, Mean", "setting": "[3]; 10 μM", "result": 0.89, "unit": "x-times expression"},
      {"measurement": "gp100 expression (in words)", "setting": "[3]; 100 μM", "result": "induced"},
      {"measurement": "gp100 expression, Mean", "setting": "[3]; 100 μM", "result": 3.48, "unit": "x-times expression"},
      {"measurement": "Melanin content d4 Mean", "setting": "[4]; 10 μM", "result": 100, "unit": "%"},
      {"measurement": "Melanin content d7 Mean", "setting": "[4]; 10 μM", "result": 254, "unit": "%"},
      {"measurement": "Melanin content d4 Mean", "setting": "[4]; 100 μM", "result": 100, "unit": "%"},
      {"measurement": "Melanin content d7 Mean", "setting": "[4]; 100 μM", "result": 161, "unit": "%"},
      {"measurement": "melanin synthesis in comparison to the control (in words)", "setting": "[4]; both concentration levels tested (10 μM and 100 μM)", "result": "increased markedly"}
    ]}
  ]
}
